# Data taken from ChEMBL document CHEMBL3885881, “DrugMatrix”.
# Species: Rattus norvegicus
# Test: DrugMatrix - Regimen: Daily Repeat
# Type: toxicity, organism-based, Sprague-Dawley
# Parameters: regimen Daily Repeat, gender Male, age 6-8 weeks
# Conditions: in vivo, po, 1868 mg/kg, route oral GAVAGE, dose level High, vehicle .5 % CMC; for ABSOLUTE BASOPHIL / ABSOLUTE EOSINOPHIL / ABSOLUTE LYMPHOCYTE / ABSOLUTE MONOCYTE / ABSOLUTE SEGMENTED NEUTROPHIL / BASOPHIL / EOSINOPHIL / ERYTHROCYTE COUNT / HEMATOCRIT / HEMOGLOBIN / LEUKOCYTE COUNT / LYMPHOCYTE / MEAN CORPUSCULAR HEMOGLOBIN / MEAN CORPUSCULAR HEMOGLOBIN CONCENTRATION / MEAN CORPUSCULAR VOLUME / MONOCYTE / NEUTROPHIL / NUCLEATED RED BLOOD CELLS / PLATELET COUNT: tissue Blood
# [1] = 72 h, tissue Plasma, time 3 day
# [2] = 120 h, tissue Plasma, time 5 day
structure (smiles),measurement,setting,value
CC(=O)OCc1ccccc1 [E1501],ABSOLUTE BASOPHIL,"72 h, time 3 day",0 CELLS/uL
same,ABSOLUTE EOSINOPHIL,"72 h, time 3 day",53 CELLS/uL
same,ABSOLUTE LYMPHOCYTE,"72 h, time 3 day",16547 CELLS/uL
same,ABSOLUTE MONOCYTE,"72 h, time 3 day",404 CELLS/uL
same,ABSOLUTE SEGMENTED NEUTROPHIL,"72 h, time 3 day",3196 CELLS/uL
same,BASOPHIL,"72 h, time 3 day",0%
same,EOSINOPHIL,"72 h, time 3 day",0.5%
same,ERYTHROCYTE COUNT,"72 h, time 3 day",6.19 x10E6/uL
same,HEMATOCRIT,"72 h, time 3 day",37.45%
same,HEMOGLOBIN,"72 h, time 3 day",13.25 G/DL
same,LEUKOCYTE COUNT,"72 h, time 3 day",20.2 x10E3/uL
same,LYMPHOCYTE,"72 h, time 3 day",75.5%
same,MEAN CORPUSCULAR HEMOGLOBIN,"72 h, time 3 day",21.45 pg
same,MEAN CORPUSCULAR HEMOGLOBIN CONCENTRATION,"72 h, time 3 day",35.4 G/DL
same,MEAN CORPUSCULAR VOLUME,"72 h, time 3 day",60.6 fL
same,MONOCYTE,"72 h, time 3 day",2%
same,NEUTROPHIL,"72 h, time 3 day",22%
same,NUCLEATED RED BLOOD CELLS,"72 h, time 3 day",0 /100WBC
same,PLATELET COUNT,"72 h, time 3 day",1224 x10E3/uL
same,ALANINE AMINOTRANSFERASE,[1],60 u/L
same,ALBUMIN,[1],4.7 G/DL
same,ALKALINE PHOSPHATASE,[1],462 u/L
same,ASPARTATE AMINOTRANSFERASE,[1],177 u/L
same,BLOOD UREA NITROGEN,[1],54 mg/dL
same,CARBON DIOXIDE,[1],24 mmol/L
same,CHLORIDE,[1],92.5 MEQ/L
same,CHOLESTEROL,[1],57 mg/dL
same,CREATININE,[1],0.49 mg/dL
same,GLUCOSE,[1],276 mg/dL
same,LACTATE DEHYDROGENASE,[1],270.5 u/L
same,LIPASE,[1],9.5 u/L
same,PHOSPHORUS,[1],16.1 mg/dL
same,POTASSIUM,[1],5.06 MEQ/L
same,SODIUM,[1],143.6 MEQ/L
same,TOTAL BILIRUBIN,[1],0.25 mg/dL
same,TOTAL PROTEIN,[1],7 G/DL
same,URIC ACID,[1],2 mg/dL
same,ABSOLUTE BASOPHIL,"120 h, time 5 day",0 CELLS/uL
same,ABSOLUTE EOSINOPHIL,"120 h, time 5 day",243.33 CELLS/uL
same,ABSOLUTE LYMPHOCYTE,"120 h, time 5 day",9225.33 CELLS/uL
same,ABSOLUTE MONOCYTE,"120 h, time 5 day",248.33 CELLS/uL
same,ABSOLUTE SEGMENTED NEUTROPHIL,"120 h, time 5 day",783 CELLS/uL
same,BASOPHIL,"120 h, time 5 day",0%
same,EOSINOPHIL,"120 h, time 5 day",2.33%
same,ERYTHROCYTE COUNT,"120 h, time 5 day",6.51 x10E6/uL
same,HEMATOCRIT,"120 h, time 5 day",38.67%
same,HEMOGLOBIN,"120 h, time 5 day",14.03 G/DL
same,LEUKOCYTE COUNT,"120 h, time 5 day",10.5 x10E3/uL
same,LYMPHOCYTE,"120 h, time 5 day",88%
same,MEAN CORPUSCULAR HEMOGLOBIN,"120 h, time 5 day",21.53 pg
same,MEAN CORPUSCULAR HEMOGLOBIN CONCENTRATION,"120 h, time 5 day",36.3 G/DL
same,MEAN CORPUSCULAR VOLUME,"120 h, time 5 day",59.37 fL
same,MONOCYTE,"120 h, time 5 day",2.33%
same,NEUTROPHIL,"120 h, time 5 day",7.33%
same,NUCLEATED RED BLOOD CELLS,"120 h, time 5 day",0 /100WBC
same,PLATELET COUNT,"120 h, time 5 day",934.67 x10E3/uL
same,ALANINE AMINOTRANSFERASE,[2],127 u/L
same,ALBUMIN,[2],4.53 G/DL
same,ALKALINE PHOSPHATASE,[2],336 u/L
same,ASPARTATE AMINOTRANSFERASE,[2],386 u/L
same,BLOOD UREA NITROGEN,[2],22 mg/dL
same,CARBON DIOXIDE,[2],30 mmol/L
same,CHLORIDE,[2],99.67 MEQ/L
same,CHOLESTEROL,[2],65 mg/dL
same,CREATININE,[2],0.28 mg/dL
same,GLUCOSE,[2],167 mg/dL
same,LACTATE DEHYDROGENASE,[2],574 u/L
same,LIPASE,[2],9.67 u/L
same,PHOSPHORUS,[2],13.07 mg/dL
same,POTASSIUM,[2],6.24 MEQ/L
same,SODIUM,[2],148.47 MEQ/L
same,TOTAL BILIRUBIN,[2],0.17 mg/dL
same,URIC ACID,[2],1.83 mg/dL
same,ABSOLUTE BASOPHIL,"[…], time 11 day",0 CELLS/uL
same,ABSOLUTE EOSINOPHIL,"[…], time 11 day",0 CELLS/uL
same,ABSOLUTE LYMPHOCYTE,"[…], time 11 day",4840 CELLS/uL
same,ABSOLUTE MONOCYTE,"[…], time 11 day",440 CELLS/uL
same,ABSOLUTE SEGMENTED NEUTROPHIL,"[…], time 11 day",3520 CELLS/uL
same,BASOPHIL,"[…], time 11 day",0%
same,EOSINOPHIL,"[…], time 11 day",0%
same,ERYTHROCYTE COUNT,"[…], time 11 day",6.27 x10E6/uL
same,HEMATOCRIT,"[…], time 11 day",37.6%
same,HEMOGLOBIN,"[…], time 11 day",13.8 G/DL
same,LEUKOCYTE COUNT,"[…], time 11 day",8.8 x10E3/uL
same,LYMPHOCYTE,"[…], time 11 day",55%
same,MEAN CORPUSCULAR HEMOGLOBIN,"[…], time 11 day",22 pg
same,MEAN CORPUSCULAR HEMOGLOBIN CONCENTRATION,"[…], time 11 day",36.7 G/DL
same,MEAN CORPUSCULAR VOLUME,"[…], time 11 day",60 fL
same,MONOCYTE,"[…], time 11 day",5%
same,NEUTROPHIL,"[…], time 11 day",40%
same,NUCLEATED RED BLOOD CELLS,"[…], time 11 day",0 /100WBC
